According to the kinase profiling compilation of Christmann-Franck et al. (2016):

Experiments:
Experiment in all cases: radiometric filter-binding kinase assay, Kinaseprofiler
[1] = molecular target: CSNK1G2 (human) (UniProt P78368); conditions: ATP 10 µM
[2] = molecular target: GRK7 (human) (UniProt Q8WTQ7); conditions: ATP 15 µM
[3] = molecular target: FGFR4 (human) (UniProt P22455); conditions: ATP 155 µM
[4] = molecular target: JAK2 JH1 catalytic (human) (UniProt O60674); conditions: ATP 45 µM
[5] = molecular target: STK24 (human) (UniProt Q9Y6E0); conditions: ATP 15 µM
[6] = molecular target: FER (human) (UniProt P16591); conditions: ATP 70 µM
[7] = molecular target: EPHA4 (human) (UniProt P54764); conditions: ATP 15 µM
[8] = molecular target: SRC (human) (UniProt P12931); conditions: ATP 200 µM
[9] = molecular target: CAMK4 (human) (UniProt Q16566); conditions: ATP 10 µM
[10] = molecular target: SRPK2 (human) (UniProt P78362); conditions: ATP 10 µM
[11] = molecular target: MAPK12 (human) (UniProt P53778); conditions: ATP 15 µM
[12] = molecular target: EPHA2 (human) (UniProt P29317); conditions: ATP 155 µM
[13] = molecular target: MAPK14 (human) (UniProt Q16539); conditions: ATP 90 µM
[14] = molecular target: STK11 (human) (UniProt Q15831); conditions: ATP 155 µM
[15] = molecular target: STK4 (human) (UniProt Q13043); conditions: ATP 90 µM
[16] = molecular target: MINK1 (human) (UniProt Q8N4C8); conditions: ATP 185 µM
[17] = molecular target: PLK2 (human) (UniProt Q9NYY3); conditions: ATP 120 µM
[18] = molecular target: PLK1 (human) (UniProt P53350); conditions: ATP 70 µM
[19] = molecular target: CDK7 CCNH MNAT1 (human) (UniProt P50613+P51948+P51946); conditions: ATP 90 µM
[20] = molecular target: ZAP70 (human) (UniProt P43403); conditions: ATP 15 µM
[21] = molecular target: BMX (human) (UniProt P51813); conditions: ATP 45 µM
[22] = molecular target: EPHA3 (human) (UniProt P29320); conditions: ATP 120 µM
[23] = molecular target: GRK5 (human) (UniProt P34947); conditions: ATP 15 µM
[24] = molecular target: CDK9 CCNT1 (human) (UniProt P50750+O60563); conditions: ATP 45 µM
[25] = test system: TEK (human), Q02763 [Q939H/Q940H]; conditions: ATP 200 µM
[26] = molecular target: BTK (human) (UniProt Q06187); conditions: ATP 200 µM
[27] = molecular target: PTK2B (human) (UniProt Q14289); conditions: ATP 90 µM
[28] = molecular target: MAPK11 (human) (UniProt Q15759); conditions: ATP 45 µM
[29] = molecular target: MAP2K6 (human) (UniProt P52564); conditions: ATP 10 µM
[30] = molecular target: FGFR1 (human) (UniProt P11362); conditions: ATP 200 µM
[31] = molecular target: MAP3K9 (human) (UniProt P80192); conditions: ATP 45 µM
[32] = molecular target: MAP2K7 (human) (UniProt O14733); conditions: ATP 10 µM
Sequence of MAP2K7 (human) (O14733 whole entry, looked up): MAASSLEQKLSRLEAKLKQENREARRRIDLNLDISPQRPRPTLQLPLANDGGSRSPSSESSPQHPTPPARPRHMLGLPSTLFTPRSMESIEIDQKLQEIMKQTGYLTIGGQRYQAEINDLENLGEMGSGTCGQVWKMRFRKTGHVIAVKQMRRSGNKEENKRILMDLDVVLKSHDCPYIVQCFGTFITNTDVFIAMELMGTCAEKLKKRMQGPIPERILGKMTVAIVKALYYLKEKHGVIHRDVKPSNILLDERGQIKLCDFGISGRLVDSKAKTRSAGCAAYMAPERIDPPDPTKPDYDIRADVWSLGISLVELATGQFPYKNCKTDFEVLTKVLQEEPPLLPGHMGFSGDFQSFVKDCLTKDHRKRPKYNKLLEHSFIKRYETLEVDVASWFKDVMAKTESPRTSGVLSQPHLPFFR

Sequence of CAMK4 (human) (Q16566 whole entry, looked up): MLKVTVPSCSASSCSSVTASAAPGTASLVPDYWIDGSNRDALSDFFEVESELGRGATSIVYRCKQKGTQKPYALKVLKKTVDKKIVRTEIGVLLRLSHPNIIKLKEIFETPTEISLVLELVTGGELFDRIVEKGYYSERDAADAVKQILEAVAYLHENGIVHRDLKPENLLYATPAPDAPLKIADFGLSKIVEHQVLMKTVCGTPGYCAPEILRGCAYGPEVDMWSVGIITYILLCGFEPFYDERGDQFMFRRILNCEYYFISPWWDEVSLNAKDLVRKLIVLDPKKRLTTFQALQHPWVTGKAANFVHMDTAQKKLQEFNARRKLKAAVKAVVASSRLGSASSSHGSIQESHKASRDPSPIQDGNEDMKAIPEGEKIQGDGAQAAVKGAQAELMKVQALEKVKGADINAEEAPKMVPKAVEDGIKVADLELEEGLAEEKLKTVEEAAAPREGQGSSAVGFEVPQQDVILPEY
Sequence of MAP3K9 (human) (P80192 whole entry, looked up): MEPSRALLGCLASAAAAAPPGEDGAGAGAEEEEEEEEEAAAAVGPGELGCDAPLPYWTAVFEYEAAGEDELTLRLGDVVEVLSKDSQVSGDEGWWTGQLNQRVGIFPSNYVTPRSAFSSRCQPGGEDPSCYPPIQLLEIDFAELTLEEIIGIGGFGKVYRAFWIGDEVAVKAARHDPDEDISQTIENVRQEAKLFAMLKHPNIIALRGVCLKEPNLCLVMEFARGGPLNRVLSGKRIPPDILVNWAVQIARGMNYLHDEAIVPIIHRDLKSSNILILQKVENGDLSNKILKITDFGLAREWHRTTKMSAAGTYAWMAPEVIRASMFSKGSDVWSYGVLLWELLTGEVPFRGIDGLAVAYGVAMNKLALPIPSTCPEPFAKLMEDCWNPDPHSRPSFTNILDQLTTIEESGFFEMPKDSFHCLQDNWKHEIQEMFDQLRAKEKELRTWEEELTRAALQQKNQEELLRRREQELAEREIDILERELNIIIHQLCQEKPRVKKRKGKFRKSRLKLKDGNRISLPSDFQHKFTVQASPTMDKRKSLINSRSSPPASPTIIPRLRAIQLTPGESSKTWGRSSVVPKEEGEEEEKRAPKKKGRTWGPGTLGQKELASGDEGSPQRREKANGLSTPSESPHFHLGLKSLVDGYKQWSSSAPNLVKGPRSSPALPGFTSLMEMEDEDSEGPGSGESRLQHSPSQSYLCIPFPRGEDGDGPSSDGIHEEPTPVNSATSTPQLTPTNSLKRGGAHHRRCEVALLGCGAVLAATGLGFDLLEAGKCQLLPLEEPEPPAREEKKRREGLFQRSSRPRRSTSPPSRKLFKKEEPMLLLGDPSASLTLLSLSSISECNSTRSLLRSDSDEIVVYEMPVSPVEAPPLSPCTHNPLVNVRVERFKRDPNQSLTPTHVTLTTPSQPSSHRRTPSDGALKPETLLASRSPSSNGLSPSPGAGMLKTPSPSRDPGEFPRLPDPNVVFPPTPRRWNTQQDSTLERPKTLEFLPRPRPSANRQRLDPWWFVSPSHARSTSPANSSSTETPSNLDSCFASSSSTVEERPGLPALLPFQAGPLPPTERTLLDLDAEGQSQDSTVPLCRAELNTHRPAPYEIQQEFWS
Sequence of FGFR4 (human) (P22455 whole entry, looked up): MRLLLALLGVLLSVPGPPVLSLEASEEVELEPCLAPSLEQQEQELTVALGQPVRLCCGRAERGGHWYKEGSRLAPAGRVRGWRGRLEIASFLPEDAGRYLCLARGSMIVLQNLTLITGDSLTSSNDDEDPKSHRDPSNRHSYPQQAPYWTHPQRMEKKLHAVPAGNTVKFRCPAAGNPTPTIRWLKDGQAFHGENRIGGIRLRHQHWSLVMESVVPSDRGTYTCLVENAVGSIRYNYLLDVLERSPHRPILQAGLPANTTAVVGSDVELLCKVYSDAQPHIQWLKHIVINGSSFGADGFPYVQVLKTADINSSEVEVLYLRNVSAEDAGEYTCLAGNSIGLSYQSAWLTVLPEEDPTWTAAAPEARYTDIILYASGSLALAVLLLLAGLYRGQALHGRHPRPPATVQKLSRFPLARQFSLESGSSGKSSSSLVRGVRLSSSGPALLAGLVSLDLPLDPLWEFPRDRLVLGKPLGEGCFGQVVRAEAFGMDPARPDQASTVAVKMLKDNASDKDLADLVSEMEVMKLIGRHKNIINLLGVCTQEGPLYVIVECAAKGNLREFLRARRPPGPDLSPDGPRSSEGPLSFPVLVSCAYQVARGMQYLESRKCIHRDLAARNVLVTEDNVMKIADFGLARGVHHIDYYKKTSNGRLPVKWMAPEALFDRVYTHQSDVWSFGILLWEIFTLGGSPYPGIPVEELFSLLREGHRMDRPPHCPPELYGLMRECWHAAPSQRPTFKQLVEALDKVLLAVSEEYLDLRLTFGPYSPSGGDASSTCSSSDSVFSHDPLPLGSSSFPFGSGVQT
Sequence of FGFR1 (human) (P11362 whole entry, looked up): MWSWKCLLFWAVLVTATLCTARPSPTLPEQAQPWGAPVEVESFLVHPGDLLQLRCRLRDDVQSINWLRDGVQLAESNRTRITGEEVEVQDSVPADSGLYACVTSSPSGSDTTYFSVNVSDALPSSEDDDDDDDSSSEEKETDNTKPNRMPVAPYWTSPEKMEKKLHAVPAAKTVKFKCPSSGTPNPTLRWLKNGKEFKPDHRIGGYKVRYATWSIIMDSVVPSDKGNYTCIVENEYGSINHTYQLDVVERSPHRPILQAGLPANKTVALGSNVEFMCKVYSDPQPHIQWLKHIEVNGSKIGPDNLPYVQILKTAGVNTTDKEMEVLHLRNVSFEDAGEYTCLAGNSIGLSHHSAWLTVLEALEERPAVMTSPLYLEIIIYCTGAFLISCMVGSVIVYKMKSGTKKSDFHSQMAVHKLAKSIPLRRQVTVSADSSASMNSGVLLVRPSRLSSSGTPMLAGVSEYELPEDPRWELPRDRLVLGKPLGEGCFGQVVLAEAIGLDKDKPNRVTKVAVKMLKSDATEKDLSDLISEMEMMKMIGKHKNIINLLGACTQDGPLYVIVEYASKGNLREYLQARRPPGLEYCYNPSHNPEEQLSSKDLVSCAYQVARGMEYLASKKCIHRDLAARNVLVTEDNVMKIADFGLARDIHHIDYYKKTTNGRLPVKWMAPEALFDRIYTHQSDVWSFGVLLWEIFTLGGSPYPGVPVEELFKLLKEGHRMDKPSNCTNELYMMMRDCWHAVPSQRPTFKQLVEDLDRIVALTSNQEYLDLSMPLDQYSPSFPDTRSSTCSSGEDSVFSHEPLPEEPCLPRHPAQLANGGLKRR
Sequence of BTK (human) (Q06187 whole entry, looked up): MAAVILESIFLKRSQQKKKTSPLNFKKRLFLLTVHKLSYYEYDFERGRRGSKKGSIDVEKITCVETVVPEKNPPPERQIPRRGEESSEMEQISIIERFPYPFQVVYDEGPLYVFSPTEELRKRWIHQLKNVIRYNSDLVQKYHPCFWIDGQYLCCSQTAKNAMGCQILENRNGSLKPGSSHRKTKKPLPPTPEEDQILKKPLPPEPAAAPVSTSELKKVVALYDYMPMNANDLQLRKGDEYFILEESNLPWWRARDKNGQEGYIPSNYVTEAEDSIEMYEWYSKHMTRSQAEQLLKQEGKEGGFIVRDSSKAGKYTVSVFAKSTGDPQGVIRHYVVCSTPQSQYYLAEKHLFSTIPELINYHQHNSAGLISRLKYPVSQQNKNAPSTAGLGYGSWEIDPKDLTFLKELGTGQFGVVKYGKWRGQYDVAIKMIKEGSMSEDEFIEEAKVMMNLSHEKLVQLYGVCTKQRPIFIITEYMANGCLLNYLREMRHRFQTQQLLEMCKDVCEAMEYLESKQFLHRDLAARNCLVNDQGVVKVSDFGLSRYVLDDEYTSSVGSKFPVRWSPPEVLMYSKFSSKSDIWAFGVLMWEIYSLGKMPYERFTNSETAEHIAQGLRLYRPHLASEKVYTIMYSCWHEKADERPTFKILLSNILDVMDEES
Sequence of SRC (human) (P12931 whole entry, looked up): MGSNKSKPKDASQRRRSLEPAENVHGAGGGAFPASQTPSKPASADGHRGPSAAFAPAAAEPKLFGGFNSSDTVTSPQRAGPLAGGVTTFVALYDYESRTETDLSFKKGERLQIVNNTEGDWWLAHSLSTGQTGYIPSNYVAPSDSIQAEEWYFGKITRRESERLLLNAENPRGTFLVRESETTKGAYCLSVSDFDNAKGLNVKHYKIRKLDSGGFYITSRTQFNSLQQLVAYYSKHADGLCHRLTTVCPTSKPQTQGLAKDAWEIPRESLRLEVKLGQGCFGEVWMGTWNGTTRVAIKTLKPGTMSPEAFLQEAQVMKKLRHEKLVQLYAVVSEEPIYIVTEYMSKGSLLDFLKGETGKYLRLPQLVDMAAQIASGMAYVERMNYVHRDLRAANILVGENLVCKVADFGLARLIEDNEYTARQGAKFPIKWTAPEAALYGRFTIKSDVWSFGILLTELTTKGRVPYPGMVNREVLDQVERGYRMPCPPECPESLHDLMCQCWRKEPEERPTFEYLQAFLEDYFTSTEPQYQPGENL

residual activity ([1]; compound 1.0 µM): 70%
residual activity ([1]; compound 10.0 µM): 6%
residual activity ([2]; compound 1.0 µM): 71%
residual activity ([2]; compound 10.0 µM): 27%
residual activity ([3]; compound 1.0 µM): 110%
residual activity ([3]; compound 10.0 µM): 89%
residual activity ([4]; compound 1.0 µM): 58%
residual activity ([4]; compound 10.0 µM): 11%
residual activity ([5]; compound 1.0 µM): 57%
residual activity ([5]; compound 10.0 µM): 21%
residual activity ([6]; compound 1.0 µM): 75%
residual activity ([6]; compound 10.0 µM): 51%
residual activity ([7]; compound 1.0 µM): 105%
residual activity ([7]; compound 10.0 µM): 106%
residual activity ([8]; compound 1.0 µM): 89%
residual activity ([8]; compound 10.0 µM): 64%
residual activity ([9]; compound 1.0 µM): 73%
residual activity ([9]; compound 10.0 µM): 24%
residual activity ([10]; compound 1.0 µM): 97%
residual activity ([10]; compound 10.0 µM): 57%
residual activity ([11]; compound 1.0 µM): 82%
residual activity ([11]; compound 10.0 µM): 61%
residual activity ([12]; compound 1.0 µM): 88%
residual activity ([12]; compound 10.0 µM): 60%
residual activity ([13]; compound 1.0 µM): 96%
residual activity ([13]; compound 10.0 µM): 85%
residual activity ([14]; compound 1.0 µM): 75%
residual activity ([14]; compound 10.0 µM): 41%
residual activity ([15]; compound 1.0 µM): 52%
residual activity ([15]; compound 10.0 µM): 21%
residual activity ([16]; compound 1.0 µM): 86%
residual activity ([16]; compound 10.0 µM): 50%
residual activity ([17]; compound 1.0 µM): 85%
residual activity ([17]; compound 10.0 µM): 61%
residual activity ([18]; compound 1.0 µM): 69%
residual activity ([18]; compound 10.0 µM): 64%
residual activity ([19]; compound 1.0 µM): 75%
residual activity ([19]; compound 10.0 µM): 24%
residual activity ([20]; compound 1.0 µM): 94%
residual activity ([20]; compound 10.0 µM): 98%
residual activity ([21]; compound 1.0 µM): 59%
residual activity ([21]; compound 10.0 µM): 18%
residual activity ([22]; compound 1.0 µM): 75%
residual activity ([22]; compound 10.0 µM): 48%
residual activity ([23]; compound 1.0 µM): 84%
residual activity ([23]; compound 10.0 µM): 63%
residual activity ([24]; compound 1.0 µM): 96%
residual activity ([24]; compound 10.0 µM): 55%
residual activity ([25]; compound 1.0 µM): 95%
residual activity ([25]; compound 10.0 µM): 63%
residual activity ([26]; compound 1.0 µM): 88%
residual activity ([26]; compound 10.0 µM): 57%
residual activity ([27]; compound 1.0 µM): 68%
residual activity ([27]; compound 10.0 µM): 23%
residual activity ([28]; compound 1.0 µM): 88%
residual activity ([28]; compound 10.0 µM): 79%
residual activity ([29]; compound 1.0 µM): 82%
residual activity ([29]; compound 10.0 µM): 13%
residual activity ([30]; compound 1.0 µM): 39%
residual activity ([30]; compound 10.0 µM): 4%
residual activity ([31]; compound 1.0 µM): 13%
residual activity ([31]; compound 10.0 µM): 4%
residual activity ([32]; compound 1.0 µM): 58%
residual activity ([32]; compound 10.0 µM): 6%
Compound: O=C1c2ccccc2-c2n[nH]c3cccc1c23
